The source of these data is US20250327032A1, “AGENT FOR AVOIDING IMMUNE RESPONSE OF TRANSGENIC CELLS” (HYPERION DRUG DISCOVERY CO., LTD., priority 2021, published 2025).

What all share (format): cell-based
Experiment [1] concerns human mesenchymal stem cells. The experiment can be described thus: Introduction of increased amount of GFP mRNA (20 pg/cell), yield of GFP-positive cells. To be noted: JSH-23 1 μM, versus 20 pg/cell without JSH-23. On the procedure: Human mesenchymal stem cells were seeded in a 6-well plate to be about 10,000 cells/cm^2. As a culture solution, αMEM (+10% serum) supplemented with 1 μM of JSH-23 or αMEM (+10% serum) supplemented with 0.1% (v/v) DMSO instead of JSH-23 was used.
A lipofection solution was prepared by adding Lipofectamine RNAiMAX and fluorescent protein GFP mRNA to OptiMEM. It was prepared so that the amount of mRNA was 10 pg/cell or 20 pg/cell. The prepared lipofection solution was mixed well according to the manufacturer's recommended protocol and allowed to stand at room temperature for about 15 minutes.
Next, a lipofection solution prepared so that the amount of mRNA was 20 pg/cell was added to a plate that used, as a culture solution, αMEM (+10% serum) supplemented with DMSO or JSH-23, respectively. […]
(§1) Twenty-four hours after the final introduction of genes, the cells were detached with a cell detachment solution, centrifuged at 600×g for 5 minutes using a centrifuge, to collect the cells. The collected cells were counted using a hemocytometer. Furthermore, the GFP-positive percentage of the collected cells was measured using a flow cytometer. The yield of the number of GFP-positive cells was calculated from the number of cells counted and the GFP-positive percentage.

The test system of experiment [2] is human mesenchymal stem cells. Kind of experiment: Introduction of GFP mRNA with NFκB inhibitors other than nuclear translocation inhibitors (Example 12), yield of GFP-positive cells. The conditions noted are these: JSH-23 1 μM; GFP mRNA 10 pg/cell. On the procedure: Improvement in the yield of transgenic cells when using an NFκB inhibitor other than the NFκB nuclear translocation inhibitor of the present invention was investigated. As the NFκB inhibitors, BAY11 (IKK inhibitor), dexamethasone (IκB degradation inhibitor), and 6-amino-4-(4-phenoxyphenethylamino)quinazoline (p65 acetylation inhibitor) were used to perform introduction of genes. For comparison, introduction of gene was performed under the same conditions using JSH-23, an NFκB nuclear translocation inhibitor, instead of the above-mentioned NFκB inhibitors. The specific procedure is as follows.
Human mesenchymal stem cells were seeded in a 6-well plate to be about 10,000 cells/cm^2. […]
as §1

Experiment [3] relates to TNF-α. The experiment can be described thus: TNF-α expression level (qPCR) after introduction of GFP mRNA containing pseudouridine. To be noted: human mesenchymal stem cells; JSH-23 10 μM; GFP mRNA containing pseudouridine 10 pg/cell; compared to pseudouridine only. On the procedure:
Reduction of TNF-α expression level using JSH-23 in introduction of GFP mRNA into human mesenchymal stem cells (hMSCs) Human mesenchymal stem cells were seeded in a 6-well plate to be about 10,000 cells/cm^2. As a culture solution, αMEM (+10% serum) supplemented with 10 μM of JSH-23 was used. As a control, αMEM (+10% serum) supplemented with 0.1% (v/v) DMSO instead of JSH-23 was used as a culture solution.
A lipofection solution was prepared by adding Lipofectamine RNAiMAX and fluorescent protein GFP mRNA to OptiMEM. The GFP mRNA containing pseudouridine instead of uridine was used. It was prepared so that the amount of mRNA was 10 pg/cell. The prepared lipofection solution was mixed well according to the manufacturer's recommended protocol and allowed to stand at room temperature for about 15 minutes.
Next, each lipofection solution was added to the plate seeded with human mesenchymal stem cells or human myoblasts, and cultured in a CO2 incubator at 37° C. for about 1 day (18 hours). […]
cDNA was synthesized from the purified RNA using SuperScript™ III Reverse Transcriptase according to the manufacturer's protocol. qPCR was performed using synthesized cDNA and PCR primers and PowerTrack™ SYBR Green Master Mix. The measured Ct value of TNF-α was normalized with the Ct value of β-actin, a housekeeping gene.

As to `Cc1ccc(NCCCc2ccccc2)c(N)c1` [JSH-23], the “number of GFP-positive cells” value in experiment [1] is on record as “increased”. Moreover, the “number of GFP-positive (transgenic) cells relative to control (set to 1)” value in experiment [2] is no less than 7 times. The “expression level of TNF-α (normalized with β-actin)” value in experiment [3] is on record as “further reduced”.
